# Reference: patent US5100785A, “Polycyclic ether antibiotic” (Pfizer Inc., priority 1984, dated 1992)
# Tests used:
# Staphylococcus aureus = assay: in vitro antibacterial activity (MIC), Staphylococcus aureus; assay type: cell-based; details: 24 hours
# Protocol: (§1) In Table I, below, the results of in vitro tests are summarized. For this test each organism is innoculated in a series of test tubes containing nutrient medium and varying concentrations of Antibiotic UK-58,852 to determine the minimal concentration of the compound in mcg./ml. which inhibits the growth of the organism over a period of 24 hours (MIC).
# Streptococcus faecalis = assay: in vitro antibacterial activity (MIC), Streptococcus faecalis; assay type: cell-based; details: strain 02A006; 24 hours
# Streptococcus pyogenes = assay: in vitro antibacterial activity (MIC), Streptococcus pyogenes; assay type: cell-based; details: strain 020303; 24 hours
# Actinomyces pyogenes = assay: in vitro antibacterial activity (MIC), Actinomyces pyogenes; assay type: cell-based; details: strain 14D011; 24 hours
# [1] = system: Actinobacillus pleuropneumoniae; assay: in vitro antibacterial activity (MIC), Actinobacillus pleuropneumoniae; assay type: cell-based; details: 24 hours
# Pasteurella multocida = assay: in vitro antibacterial activity (MIC), Pasteurella multocida; assay type: cell-based; details: strain 59A006; 24 hours
# Bacteroides fragilis = assay: in vitro antibacterial activity (MIC), Bacteroides fragilis; assay type: cell-based; details: strain 78C024; 24 hours
# [2] = system: Fusobacterium necrophorum; assay: in vitro antibacterial activity (MIC), Fusobacterium necrophorum; assay type: cell-based; details: strain 84C004; 24 hours
# Treponema hyodysenteriae = assay: in vitro antibacterial activity (MIC), Treponema hyodysenteriae; assay type: cell-based; details: strain 94A007; 24 hours
# Escherischia coli = assay: in vitro antibacterial activity (MIC), Escherischia coli; assay type: cell-based; details: gram-negative; 24 hours
# Protocol: as §1
# Pseudomonas aeruginosa = assay: in vitro antibacterial activity (MIC), Pseudomonas aeruginosa; assay type: cell-based; details: gram-negative; 24 hours
# Protocol: as §1
# Klebsiella pneumoniae = assay: in vitro antibacterial activity (MIC), Klebsiella pneumoniae; assay type: cell-based; details: gram-negative; 24 hours
# Protocol: as §1
# Serratia marcescens = assay: in vitro antibacterial activity (MIC), Serratia marcescens; assay type: cell-based; details: gram-negative; 24 hours
# Protocol: as §1
# [3] = system: Enterobacteriaceae aerogenes; assay: in vitro antibacterial activity (MIC), Enterobacteriaceae aerogenes; assay type: cell-based; details: gram-negative; 24 hours
# Protocol: as §1
# rumen fluid = assay: in vitro rumen technique, propionic acid production; details: 39° C., about 16 hours; for increase in propionic acid production: 10 mcg/ml., separate experiment with CP-70,228; for increase in the production of propionic acid over control: 10 micrograms per milliliter, experiment with UK-58,852
# Eimeria tenella = assay: in vivo anticoccidial activity in chickens, Eimeria tenella; details: for AVERAGE DEGREE OF INFECTION / WEIGHT GAIN (PERCENT): chickens, after six days
# Eimeria acervulina = assay: in vivo anticoccidial activity in chickens, Eimeria acervulina; details: for AVERAGE DEGREE OF INFECTION / WEIGHT GAIN (PERCENT): chickens, after five days
# Clostridium perfringens = assay type: cell-based; details: strain 10A009; 24 hours
# E. maxima = assay: in vivo anticoccidial activity in chickens, E. maxima; details: diet of chickens, 25 to 150 ppm
# E. brunetti = assay: in vivo anticoccidial activity in chickens, E. brunetti; details: diet of chickens, 25 to 150 ppm
# E. necatrix = assay: in vivo anticoccidial activity in chickens, E. necatrix; details: diet of chickens, 25 to 150 ppm
# [4] = diet of chickens, 25 to 150 ppm
structure (smiles),measurement,setting,value
"COC1CCC(OC2CC(C3OC(C)(OC)C(C)CC3C)OC2C2(C)CCC(C3(C)CCC4(CC(O)C(C)C(C(C)C5OC(O)(CC(=O)[O-])C(C)C(OC6CCC(OC)C(C)O6)C5OC)O4)O3)O2)OC1C.[Na+] (centres unmarked) [CP-70,228 Sodium Salt]",MIC,Staphylococcus aureus; strain 01A005,3.12 µg/mL
same,MIC,Staphylococcus aureus; strain 01A052,3.12 µg/mL
same,MIC,Staphylococcus aureus; strain 01A110,3.12 µg/mL
same,MIC,Staphylococcus aureus; strain 01A400,6.25 µg/mL
same,MIC,Streptococcus faecalis,50 µg/mL
same,MIC,Streptococcus pyogenes,0.10 µg/mL
same,MIC,Actinomyces pyogenes,0.34 µg/mL
same,MIC,[1]; strain 54B004,> 100 µg/mL
same,MIC,Pasteurella multocida,> 100 µg/mL
same,MIC,Bacteroides fragilis,12.5 µg/mL
same,MIC,[2],> 100 µg/mL
same,MIC,Treponema hyodysenteriae,1.58 µg/mL
same,MIC,Escherischia coli,> 50 µg/mL
same,MIC,Pseudomonas aeruginosa,> 50 µg/mL
same,MIC,Klebsiella pneumoniae,> 50 µg/mL
same,MIC,Serratia marcescens,> 50 µg/mL
same,MIC,[3],> 50 µg/mL
"COC1CCC(OC2CC(C3OC(C)(OC)C(C)CC3C)OC2C2(C)CCC(C3(C)CCC4(CC(O)C(C)C(C(C)C5OC(O)(CC(=O)O)C(C)C(OC6CCC(OC)C(C)O6)C5OC)O4)O3)O2)OC1C (centres unmarked) [CP-70,228]",increase in propionic acid production,rumen fluid,about 30%
same,AVERAGE DEGREE OF INFECTION,Eimeria tenella; 25 ppm in feed,2.7
same,WEIGHT GAIN (PERCENT),Eimeria tenella; 25 ppm in feed,80%
same,AVERAGE DEGREE OF INFECTION,Eimeria tenella; 50 ppm in feed,1.3
same,WEIGHT GAIN (PERCENT),Eimeria tenella; 50 ppm in feed,103%
same,AVERAGE DEGREE OF INFECTION,Eimeria tenella; 75 ppm in feed,0.3
same,WEIGHT GAIN (PERCENT),Eimeria tenella; 75 ppm in feed,63%
same,AVERAGE DEGREE OF INFECTION,Eimeria tenella; 100 ppm in feed,0.0
same,WEIGHT GAIN (PERCENT),Eimeria tenella; 100 ppm in feed,95%
same,AVERAGE DEGREE OF INFECTION,Eimeria acervulina; 25 ppm in feed,1.2
same,WEIGHT GAIN (PERCENT),Eimeria acervulina; 25 ppm in feed,40%
same,AVERAGE DEGREE OF INFECTION,Eimeria acervulina; 50 ppm in feed,0.0
same,WEIGHT GAIN (PERCENT),Eimeria acervulina; 50 ppm in feed,70%
same,AVERAGE DEGREE OF INFECTION,Eimeria acervulina; 75 ppm in feed,0.0
same,WEIGHT GAIN (PERCENT),Eimeria acervulina; 75 ppm in feed,100%
same,AVERAGE DEGREE OF INFECTION,Eimeria acervulina; 100 ppm in feed,0.0
same,WEIGHT GAIN (PERCENT),Eimeria acervulina; 100 ppm in feed,100%
"COC1CCC(OC2CC(C3OC(C)(OC)C(C)CC3C)OC2C2(C)CCC(C3(C)CCC4(CC(OC)C(C)C(C(C)C5OC(O)(CC(=O)[O-])C(C)C(OC6CCC(OC)C(C)O6)C5OC)O4)O3)O2)OC1C.[Na+] (centres unmarked) [CP-70,828 Sodium Salt]",MIC,Staphylococcus aureus; strain 01A005,25 µg/mL
same,MIC,Staphylococcus aureus; strain 01A052,25 µg/mL
same,MIC,Staphylococcus aureus; strain 01A110,25 µg/mL
same,MIC,Staphylococcus aureus; strain 01A400,25 µg/mL
same,MIC,Streptococcus faecalis,> 50 µg/mL
same,MIC,Streptococcus pyogenes,3.12 µg/mL
same,MIC,Escherischia coli,> 50 µg/mL
same,MIC,Pseudomonas aeruginosa,> 50 µg/mL
same,MIC,Klebsiella pneumoniae,> 50 µg/mL
same,MIC,Serratia marcescens,> 50 µg/mL
same,MIC,[3],> 50 µg/mL
"COC1CCC(OC2CC(C3OC(C)(O)C(C)CC3C)OC2C2(C)CCC(C3(C)CCC4(CC(O)C(C)C(C(C)C5OC(O)(CC(=O)[O-])C(C)C(OC6CCC(OC)C(C)O6)C5OC)O4)O3)O2)OC1C.[Na+] (centres unmarked) [UK-58,852 (sodium salt)]",MIC,Staphylococcus aureus; strain 01A005,3.12 µg/mL
same,MIC,Staphylococcus aureus; strain 01A052,3.12 µg/mL
same,MIC,Staphylococcus aureus; strain 01A110,3.12 µg/mL
same,MIC,Staphylococcus aureus; strain 01A400,6.25 µg/mL
same,MIC,Streptococcus faecalis,> 50 µg/mL
same,MIC,Streptococcus pyogenes,0.05 µg/mL
same,MIC,Actinomyces pyogenes,0.08 µg/mL
same,MIC,[1]; strain 44B004,> 25 µg/mL
same,MIC,Pasteurella multocida,> 200 µg/mL
same,MIC,Clostridium perfringens,0.79 µg/mL
same,MIC,Bacteroides fragilis,0.10 µg/mL
same,MIC,[2],> 25 µg/mL
same,MIC,Treponema hyodysenteriae,0.39 µg/mL
same,MIC,Escherischia coli,> 50 µg/mL
same,MIC,Pseudomonas aeruginosa,> 50 µg/mL
same,MIC,Klebsiella pneumoniae,> 50 µg/mL
same,MIC,Serratia marcescens,> 50 µg/mL
same,MIC,[3],> 50 µg/mL
"COC1CCC(OC2CC(C3OC(C)(O)C(C)CC3C)OC2C2(C)CCC(C3(C)CCC4(CC(O)C(C)C(C(C)C5OC(O)(CC(=O)O)C(C)C(OC6CCC(OC)C(C)O6)C5OC)O4)O3)O2)OC1C (centres unmarked) [UK-58,852]",increase in the production of propionic acid over control,rumen fluid,about 93%
same,controlling infections due to E. maxima,E. maxima,effective
same,controlling infections due to E. brunetti,E. brunetti,effective
same,controlling infections due to E. necatrix,E. necatrix,effective
same,AVERAGE DEGREE OF INFECTION,Eimeria tenella; 25 ppm in feed,0.0
same,WEIGHT GAIN (PERCENT),Eimeria tenella; 25 ppm in feed,93%
same,AVERAGE DEGREE OF INFECTION,Eimeria tenella; 50 ppm in feed,0.0
same,WEIGHT GAIN (PERCENT),Eimeria tenella; 50 ppm in feed,45%
same,AVERAGE DEGREE OF INFECTION,Eimeria tenella; 75 ppm in feed,0.0
same,WEIGHT GAIN (PERCENT),Eimeria tenella; 75 ppm in feed,28%
same,AVERAGE DEGREE OF INFECTION,Eimeria tenella; 100 ppm in feed,0.0
same,WEIGHT GAIN (PERCENT),Eimeria tenella; 100 ppm in feed,8%
same,AVERAGE DEGREE OF INFECTION,Eimeria tenella; 125 ppm in feed,0.0
same,WEIGHT GAIN (PERCENT),Eimeria tenella; 125 ppm in feed,4%
same,AVERAGE DEGREE OF INFECTION,Eimeria tenella; 150 ppm in feed,0.0
same,WEIGHT GAIN (PERCENT),Eimeria tenella; 150 ppm in feed,0%
same,controlling infections due to Eimeria tenella,Eimeria tenella; [4],effective
same,AVERAGE DEGREE OF INFECTION,Eimeria acervulina; 25 ppm in feed,0.0
same,WEIGHT GAIN (PERCENT),Eimeria acervulina; 25 ppm in feed,98%
same,AVERAGE DEGREE OF INFECTION,Eimeria acervulina; 50 ppm in feed,0.0
same,WEIGHT GAIN (PERCENT),Eimeria acervulina; 50 ppm in feed,62%
same,AVERAGE DEGREE OF INFECTION,Eimeria acervulina; 75 ppm in feed,0.0
same,WEIGHT GAIN (PERCENT),Eimeria acervulina; 75 ppm in feed,0%
same,AVERAGE DEGREE OF INFECTION,Eimeria acervulina; 100 ppm in feed,0.0
same,WEIGHT GAIN (PERCENT),Eimeria acervulina; 100 ppm in feed,23%
same,AVERAGE DEGREE OF INFECTION,Eimeria acervulina; 125 ppm in feed,0.0
same,WEIGHT GAIN (PERCENT),Eimeria acervulina; 125 ppm in feed,0%
same,AVERAGE DEGREE OF INFECTION,Eimeria acervulina; 150 ppm in feed,0.0
same,WEIGHT GAIN (PERCENT),Eimeria acervulina; 150 ppm in feed,0%
same,controlling infections due to E. acervulina,Eimeria acervulina; [4],effective
"CC[C@@H](C(=O)[C@@H](C)[C@@H](O)[C@H](C)[C@@H]1O[C@@H]([C@@H](CC)C(=O)O)CC[C@@H]1C)[C@H]1O[C@]2(C=C[C@@H](O)[C@]3(CC[C@@](C)([C@H]4CC[C@](O)(CC)[C@H](C)O4)O3)O2)[C@H](C)C[C@@H]1C [salinomycin, reference compound]",increase in propionic acid production,rumen fluid,about 40%
same,increase in the production of propionic acid over control,rumen fluid,~88%
